From the supplement of paper PMC11061612 come the findings set out here.

Holding throughout (assay): Bliss excess, mean over the matrix (fraction); higher = more synergy
For experiment [1], the system named is AMO-1 (Plasma Cell Myeloma). The method in brief: (§1)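 Cell lines in DMEM/F12 or RPMI with 10% FBS were plated in 1536-well plates, held 24 hours at 37°C, 5% CO2, then given two-drug dose matrices for 72 hours (DMSO typically 0.2%). Viability was read by CellTiter-Glo 2.0 luminescence and scaled as inhibition from 0 (vehicle wells) to 1 (blank wells). Combination Emax is the second-highest inhibition in the matrix; Bliss excess is observed combination effect minus expected EA + EB − EA·EB, EA and EB being single-agent effects.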

The test system of experiment [2] is BT-549 (Breast Carcinoma). Summed up: as §1
The subject of experiment [3] is D-263MG (Glioblastoma). Summed up: as §1
The subject of experiment [4] is EFM-19 (Breast Carcinoma). The method in brief: as §1
In experiment [5] the test system is Hs-766T (Pancreatic Carcinoma). The method in brief: as §1
Experiment [6] has as its system KARPAS-299 (T-Cell Non-Hodgkin's Lymphoma). Summed up: as §1
The subject of experiment [7] is KYSE-450 (Esophageal Squamous Cell Carcinoma). The method in brief:
as §1

Experiment [8] concerns LU-65 (Non-Small Cell Lung Carcinoma). Summed up: as §1
Experiment [9] has as its system MLMA (Other Blood Carcinomas). Summed up:
as §1

The subject of experiment [10] is NCI-H727 (Other Solid Carcinomas). The method in brief: as §1
The subject of experiment [11] is SW13 (Other Solid Carcinomas). The method in brief: as §1
Experiment [12] deals with TGW (Neuroblastoma). Summed up:
as §1

Experiment [13] has as its system UACC-62 (Melanoma). The method in brief: as §1

On to `C[C@@H](Nc1cc(F)cc(F)c1)c1cc(C(=O)N(C)C)cc2c(=O)cc(N3CCOCC3)oc12` [AZD8186] + CC(=O)c1c(C)c2cnc(Nc3ccc(N4CCNCC4)cn3)nc2n(C2CCCC2)c1=O [Palbociclib] (first compound max 10 µM, 7x7, partner max 10 µM), for which the Bliss excess in [1] was 0.126; in [2], 0.0464; in experiment [3] it was 0.0181; in [4], -0.0026; in experiment [5], 0.006; in experiment [6] it was 0.0912. Further, the Bliss excess was -0.0404 in experiment [7]; -0.0378 in [8]; 0.0443 in experiment [9]; 0.0923 in experiment [10]; 0.044 in experiment [11]; -0.0397 in experiment [12]. Also, in experiment [13], the Bliss excess was determined as 0.0303.

Regarding `C[C@@H](Oc1cc(-c2cnn(C3CCNCC3)c2)cnc1N)c1c(Cl)ccc(F)c1Cl` [Crizotinib] + CC1=C(C(=CC=C1)Cl)NC(=O)C2=CN=C(S2)NC3=CC(=NC(=N3)C)N4CCN(CC4)CCO [Dasatinib] (first compound max 10 µM, 7x7, partner max 2 µM), the Bliss excess in experiment [1] was -0.0368; in experiment [2] it was 0.0139; in experiment [3], 0.0932; in experiment [4], 0.0874; in [5] it was -0.074; in experiment [6] it was -0.0263. Moreover, the Bliss excess was 0.0276 in experiment [7]; -0.0973 in [8]; -0.0411 in [9]; -0.0009 in experiment [10]; -0.0173 in experiment [11]; -0.0593 in experiment [12]. Also, the Bliss excess in experiment [13] was -0.0656.

As to `C[C@@H](Oc1cc(-c2cnn(C3CCNCC3)c2)cnc1N)c1c(Cl)ccc(F)c1Cl` [Crizotinib] + Cn1cnc2c(F)c(Nc3ccc(Br)cc3Cl)c(C(=O)NOCCO)cc21 [Selumetinib] (first compound max 10 µM, 7x7, partner max 10 µM), the Bliss excess in experiment [1] is 0.0122; in [2], -0.063; in [3], -0.0866; in [4], -0.0327; in [5], -0.0074; in experiment [6], -0.032. Moreover, the Bliss excess in [7] is -0.0241; in experiment [8], 0.0003; in [9] it was -0.116; in experiment [10], -0.0226; in experiment [11], -0.0324; in [12], -0.0252. Also, the Bliss excess in [13] was -0.0229.

Consider `CS(=O)(=O)CCNCc1ccc(-c2ccc3ncnc(Nc4ccc(OCc5cccc(F)c5)c(Cl)c4)c3c2)o1` [Lapatinib] + Cn1cnc2c(F)c(Nc3ccc(Br)cc3Cl)c(C(=O)NOCCO)cc21 [Selumetinib] (first compound max 10 µM, 7x7, partner max 10 µM), for which the Bliss excess was 0.0408 in experiment [1]; -0.0473 in experiment [2]; -0.0859 in experiment [3]; -0.0395 in experiment [4]; -0.0652 in experiment [5]; 0.0736 in experiment [6]. Further, the Bliss excess in experiment [7] is -0.016; in experiment [8], -0.0113; in experiment [9], 0.0059; in [10] it was 0.0299; in [11] it was 0.0429; in experiment [12], -0.079. In addition, the Bliss excess in [13] is -0.0119.

As for `O=C(c1cc(Cc2n[nH]c(=O)c3ccccc23)ccc1F)N1CCN(C(=O)C2CC2)CC1` [Olaparib] + CC1(C)CCC(CN2CCN(c3ccc(C(=O)NS(=O)(=O)c4ccc(NCC5CCOCC5)c([N+](=O)[O-])c4)c(Oc4cnc5[nH]ccc5c4)c3)CC2)=C(c2ccc(Cl)cc2)C1 [Venetoclax] (first compound max 10 µM, 7x7, partner max 1 µM), the Bliss excess in experiment [1] is -0.0074; in [2], -0.0516; in experiment [3] it was -0.0659; in [4], 0.0138; in experiment [5] it was -0.0885; in [6], 0.0277. The Bliss excess in [7] was -0.0499; in experiment [8], -0.0323; in experiment [9], -0.0299; in experiment [10], -0.0383; in experiment [11] it was -0.0309; in [12] it was -0.0225. Also, the Bliss excess in experiment [13] is -0.007.

As to `O=C(c1cc(Cc2n[nH]c(=O)c3ccccc23)ccc1F)N1CCN(C(=O)C2CC2)CC1` [Olaparib] + CN(CC[C@H](CSC1=CC=CC=C1)NC2=C(C=C(C=C2)S(=O)(=O)NC(=O)C3=CC=C(C=C3)N4CCC(CC4)[C@H](C5=CC=CC=C5C6=CC=C(C=C6)Cl)O)S(=O)(=O)C(F)(F)F)CCO [AZD4320] (first compound max 10 µM, 7x7, partner max 1 µM), the Bliss excess in experiment [1] is -0.0111; in experiment [2] it was -0.0365; in experiment [3], -0.0672; in experiment [4], -0.015; in [5], -0.0976; in experiment [6], 0.109. For the same compound, the Bliss excess in experiment [7] is -0.0434; in experiment [8] it was -0.0739; in [9], -0.0619; in experiment [10], -0.052; in [11] it was -0.0566; in [12], -0.0479. For the same compound, the Bliss excess in experiment [13] was -0.0105.

As for `O=C(c1cc(Cc2n[nH]c(=O)c3ccccc23)ccc1F)N1CCN(C(=O)C2CC2)CC1` [Olaparib] + COc1nnc2ccc(N3CCC(c4ccc(OCCN5CCN(C)C(=O)[C@H]5C)cc4)CC3)nn12 [AZD5153] (first compound max 10 µM, 7x7, partner max 1 µM), the Bliss excess in experiment [1] is -0.0334; in experiment [2], -0.0697; in [3], -0.057; in experiment [4], 0.0112; in experiment [5], -0.0857; in experiment [6], -0.0654. Also, the Bliss excess in [7] was -0.0606; in experiment [8] it was -0.0601; in [9], -0.0697; in experiment [10] it was -0.0452; in [11], -0.0183; in experiment [12], -0.054. In experiment [13], the Bliss excess came to 0.0387.

Turning to `O=C(c1cc(Cc2n[nH]c(=O)c3ccccc23)ccc1F)N1CCN(C(=O)C2CC2)CC1` [Olaparib] + Cc1c2c(nn1C)CSCc1cc(n(C)n1)CSc1cc(c3ccccc3c1)OCCCc1c(C(=O)O)n(C)c3c-2c(Cl)ccc13 [AZD5991] (first compound max 10 µM, 7x7, partner max 1 µM), the Bliss excess in [1] was -0.0124; in experiment [2], -0.0223; in [3] it was -0.0401; in [4] it was 0.0102; in [5] it was -0.0818; in [6], 0.0202. Further, the Bliss excess in experiment [7] was -0.0409; in [8], -0.0452; in experiment [9], -0.0744; in [10] it was -0.0269; in experiment [11], 0.0104; in experiment [12] it was -0.032. Also, the Bliss excess in experiment [13] was -0.0089.

In the case of `Cc1nc(-c2cn3c(n2)-c2ccc(-c4cnn(C(C)(C)C(N)=O)c4)cc2OCC3)n(C(C)C)n1` [Taselisib] + O=C(Nc1ccc2[nH]nc(-c3ccncc3)c2c1)[C@@H]1CCN(CC(=O)N2CCN(c3ccc(-c4ncccn4)cc3)CC2)C1 [SCH772984] (first compound max 10 µM, 7x7, partner max 5 µM), the Bliss excess in experiment [1] was 0.133; in experiment [2] it was 0.047; in experiment [3], 0.0047; in [4], 0.0524; in [5], -0.0386; in experiment [6], 0.147. The Bliss excess in experiment [7] was 0.0365; in experiment [8], 0.214; in experiment [9], 0.0548; in experiment [10] it was 0.0252; in experiment [11], 0.334; in [12], 0.033. Besides, the Bliss excess in experiment [13] was -0.035.
